Results from PubChem BioAssay AID2060889 (Molecular Pharmacology Branch, DTP, NCI, 2025).

Tested on: LG0567-F671-PDC complex spheroids viability
Assay: Anticancer human tumor LG0567-F671-PDC patient-derived lung adenocarcinoma cell line growth inhibition [RAS]
Conditions: for IC50: curve of first compound; for viability, T/C: stronger effect = lower value
Summary of the method: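 Tumour cells grown as complex spheroids with HUVEC endothelial cells and mesenchymal stem cells, treated with RAS pathway inhibitor combinations. Each agent spans half-log steps from near clinical Cmax, or 10 microM where Cmax is unknown.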
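Note: spheroids exposed to compound for seven days before readout.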
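Throughout, for IC50: luminescence signal used as a proxy for viable cells.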

For `NC1c2ccccc2OC12CCN(c1cnc3c(N4CCCc5ncccc54)n[nH]c3n1)CC2` (configuration not stated) + C#Cc1c(F)ccc2cc(O)cc(-c3ncc4c(N5CC6CCC(C5)N6)nc(OCC56CCCN5CC(F)C6)nc4c3F)c12, the IC50 (second compound 0.0316 µM) was < 31.6 nM, the IC50 (second compound 0.1 µM) was < 31.6 nM and the IC50 (second compound 0.316 µM) was < 31.6 nM. The IC50 (second compound 1 µM) was < 31.6 nM, the IC50 (second compound 3.16 µM) was < 31.6 nM and the IC50 (second compound 10 µM) was < 31.6 nM. The viability, T/C (second compound 0.0316 µM, first compound 0.0316 µM) was 26.7%, the viability, T/C (second compound 0.0316 µM, first compound 0.1 µM) was 19.3% and the viability, T/C (second compound 0.0316 µM, first compound 0.316 µM) was 14.6%. For the same molecule, the viability, T/C (second compound 0.0316 µM, first compound 1 µM) was 13.3%, the viability, T/C (second compound 0.0316 µM, first compound 3.16 µM) was 10.4% and the viability, T/C (second compound 0.0316 µM, first compound 10 µM) was 10.1%. It also gave a viability, T/C (second compound 0.1 µM, first compound 0.0316 µM) of 21%, a viability, T/C (second compound 0.1 µM, first compound 0.1 µM) of 14.3% and a viability, T/C (second compound 0.1 µM, first compound 0.316 µM) of 10.1%. For the same molecule, the viability, T/C (second compound 0.1 µM, first compound 1 µM) was 8.88%, the viability, T/C (second compound 0.1 µM, first compound 3.16 µM) was 7.88% and the viability, T/C (second compound 0.1 µM, first compound 10 µM) was 6.09%. It also gave a viability, T/C (second compound 0.316 µM, first compound 0.0316 µM) of 13.9%, a viability, T/C (second compound 0.316 µM, first compound 0.1 µM) of 9.75% and a viability, T/C (second compound 0.316 µM, first compound 0.316 µM) of 8.65%. For the same molecule, the viability, T/C (second compound 0.316 µM, first compound 1 µM) was 4.96%, the viability, T/C (second compound 0.316 µM, first compound 3.16 µM) was 3.75% and the viability, T/C (second compound 0.316 µM, first compound 10 µM) was 2.92%. For the same molecule, the viability, T/C (second compound 1 µM, first compound 0.0316 µM) was 9.24%, the viability, T/C (second compound 1 µM, first compound 0.1 µM) was 6.71% and the viability, T/C (second compound 1 µM, first compound 0.316 µM) was 4%. The viability, T/C (second compound 1 µM, first compound 1 µM) was 3.17%, the viability, T/C (second compound 1 µM, first compound 3.16 µM) was 2.53% and the viability, T/C (second compound 1 µM, first compound 10 µM) was 2.43%. It also gave a viability, T/C (second compound 3.16 µM, first compound 0.0316 µM) of 6.2%, a viability, T/C (second compound 3.16 µM, first compound 0.1 µM) of 3.13% and a viability, T/C (second compound 3.16 µM, first compound 0.316 µM) of 2.43%. It also gave a viability, T/C (second compound 3.16 µM, first compound 1 µM) of 1.79%, a viability, T/C (second compound 3.16 µM, first compound 3.16 µM) of 2.13% and a viability, T/C (second compound 3.16 µM, first compound 10 µM) of 1.85%. For the same molecule, the viability, T/C (second compound 10 µM, first compound 0.0316 µM) was 3.6%, the viability, T/C (second compound 10 µM, first compound 0.1 µM) was 2.14% and the viability, T/C (second compound 10 µM, first compound 0.316 µM) was 1.74%. For the same molecule, the viability, T/C (second compound 10 µM, first compound 1 µM) was 1.65%, the viability, T/C (second compound 10 µM, first compound 3.16 µM) was 1.73% and the viability, T/C (second compound 10 µM, first compound 10 µM) was 1.28%.
